Measured values: paper PMC6556873, “Rapid Covalent-Probe Discovery by Electrophile-Fragment Screening” (Journal of the American Chemical Society, 2019)
Read-outs that look alike come from different tables or passages of the source.

Tests used:
BSA = target: T1, BSA (Bos taurus, UniProt P02769); design: Intact protein LC/MS covalent labelling, fragments in pools of five, 200 uM each, 4 °C; conditions: 24 h, 4 °C, pool of five; 200 µM; covalent
T1 construct: gene ALB

NUDT7 = target: T2, NUDT7 (Homo sapiens, UniProt P0C024); design: Intact protein LC/MS covalent labelling, fragments in pools of five, 200 uM each, 4 °C; conditions: 24 h, 4 °C, pool of five; 200 µM; covalent
T2 construct: residues 14-235, E. coli, pNIC28-Bsa4, N-terminal His6 tag removed by TEV, construct 26672 Da

OTUB2 (OTUB2A) = target: T3, OTUB2 (OTUB2A) (Homo sapiens, UniProt Q96DC9); design: Intact protein LC/MS covalent labelling, fragments in pools of five, 200 uM each, 4 °C; conditions: 24 h, 4 °C, pool of five; 200 µM; covalent
T3 construct: full length residues 1-234, E. coli BL21(DE3)-R3, His tag removed by TEV, construct 27312 Da
T3 sequence (Q96DC9 1-234): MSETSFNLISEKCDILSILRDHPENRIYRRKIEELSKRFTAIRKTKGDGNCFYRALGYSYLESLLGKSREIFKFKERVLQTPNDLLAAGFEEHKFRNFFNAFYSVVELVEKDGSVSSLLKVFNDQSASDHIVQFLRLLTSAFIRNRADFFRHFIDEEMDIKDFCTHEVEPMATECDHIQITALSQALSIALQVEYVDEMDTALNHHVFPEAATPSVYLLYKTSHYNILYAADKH

PCAF = target: T4, PCAF (Homo sapiens, UniProt Q92831); design: Intact protein LC/MS covalent labelling, fragments in pools of five, 200 uM each, 4 °C; conditions: 24 h, 4 °C, pool of five; 200 µM; covalent
T4 construct: gene KAT2B

in vitro [1] = assay: in vitro; design: species or system CCD841, HEK293; conditions: human, hb2 cells, read-out: HB-2 Cells Viability (%)
in vitro [2] = assay: in vitro; design: species or system HB2, HEK293; conditions: human, ccd841 cells
in vitro [3] = assay: in vitro; design: species or system HB2, CCD841; conditions: human, hek293 cells

T4 sequence (Q92831 whole entry, the tested form may be a part): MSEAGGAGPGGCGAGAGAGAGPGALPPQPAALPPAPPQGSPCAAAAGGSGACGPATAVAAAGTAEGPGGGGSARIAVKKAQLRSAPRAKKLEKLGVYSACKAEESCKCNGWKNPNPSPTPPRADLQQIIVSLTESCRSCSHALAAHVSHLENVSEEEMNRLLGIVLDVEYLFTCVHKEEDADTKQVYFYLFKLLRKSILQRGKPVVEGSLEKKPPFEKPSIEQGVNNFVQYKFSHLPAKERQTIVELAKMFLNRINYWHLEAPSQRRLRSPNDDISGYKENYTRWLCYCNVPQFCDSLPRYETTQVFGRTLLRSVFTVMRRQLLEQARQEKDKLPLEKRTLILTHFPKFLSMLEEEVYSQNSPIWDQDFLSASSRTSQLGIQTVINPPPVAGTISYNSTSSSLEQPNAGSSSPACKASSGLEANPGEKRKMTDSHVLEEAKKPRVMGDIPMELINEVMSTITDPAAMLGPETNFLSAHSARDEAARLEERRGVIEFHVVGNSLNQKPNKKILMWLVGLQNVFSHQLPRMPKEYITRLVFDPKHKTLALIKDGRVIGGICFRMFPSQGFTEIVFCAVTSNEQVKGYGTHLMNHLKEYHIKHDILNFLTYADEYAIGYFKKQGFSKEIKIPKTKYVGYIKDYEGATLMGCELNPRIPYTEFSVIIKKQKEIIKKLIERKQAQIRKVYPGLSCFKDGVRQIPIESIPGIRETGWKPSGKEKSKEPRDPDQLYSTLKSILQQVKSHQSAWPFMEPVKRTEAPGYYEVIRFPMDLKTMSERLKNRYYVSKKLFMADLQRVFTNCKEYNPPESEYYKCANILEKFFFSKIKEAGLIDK
T1 sequence (P02769 whole entry, the tested form may be a part): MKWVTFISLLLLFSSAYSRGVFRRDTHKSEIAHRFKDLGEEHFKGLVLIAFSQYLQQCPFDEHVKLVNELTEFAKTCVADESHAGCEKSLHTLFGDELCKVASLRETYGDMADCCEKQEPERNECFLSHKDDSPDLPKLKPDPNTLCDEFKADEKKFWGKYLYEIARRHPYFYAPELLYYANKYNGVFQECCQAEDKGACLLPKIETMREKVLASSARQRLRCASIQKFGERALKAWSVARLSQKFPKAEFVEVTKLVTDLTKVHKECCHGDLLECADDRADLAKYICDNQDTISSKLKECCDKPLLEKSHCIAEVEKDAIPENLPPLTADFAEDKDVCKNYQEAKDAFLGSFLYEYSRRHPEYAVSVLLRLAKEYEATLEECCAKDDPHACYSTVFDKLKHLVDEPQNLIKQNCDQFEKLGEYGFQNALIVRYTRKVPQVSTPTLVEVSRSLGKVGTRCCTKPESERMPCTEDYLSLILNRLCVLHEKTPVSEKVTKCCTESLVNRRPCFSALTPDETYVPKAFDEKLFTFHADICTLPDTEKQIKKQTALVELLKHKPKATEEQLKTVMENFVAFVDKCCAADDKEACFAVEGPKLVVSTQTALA
T2 sequence (P0C024 14-235): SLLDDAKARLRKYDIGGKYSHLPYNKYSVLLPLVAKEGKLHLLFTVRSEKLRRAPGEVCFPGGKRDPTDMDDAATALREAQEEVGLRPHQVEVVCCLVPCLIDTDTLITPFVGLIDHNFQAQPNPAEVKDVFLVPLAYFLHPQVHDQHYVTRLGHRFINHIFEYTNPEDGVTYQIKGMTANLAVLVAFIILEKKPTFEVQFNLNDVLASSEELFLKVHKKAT

Structure (SMILES)	BSA (BSA)	NUDT7 (NUDT7)	OTUB2 (OTUB2 (OTUB2A))	PCAF (PCAF)	viability at 48 h, 10 µM (in vitro [1])	viability at 48 h, 10 µM (in vitro [2])	viability at 48 h, 10 µM (in vitro [3])
COC(=O)c1ccccc1N(C)C(=O)CCl [PCM-0102589]	0	0.15	0	0	92.1%	89.7%	58.9%
Cc1nn(-c2ccccc2)c(C)c1NC(=O)CCl [PCM-0102501]	0	0.09	0.09	0	83.2%	68.3%	62.2%
C=CC(=O)NC1CCOC2(CCS(=O)(=O)C2)C1 (centres unmarked) [PCM-0102645]	0	0	0	0	102%	115%	110%
Cc1ccc(C)c(NC(=O)CCl)c1 [PCM-0102398]	0	0	0	0	59.4%	62.3%	51.5%
O=C(CCl)Nc1nc(-c2c[nH]c3ccccc23)cs1 [PCM-0102233]	0	0.26	0.25	0	4.8%	65%	6.5%
C=CC(=O)NCC1CCOC2(CCC2)C1 (centres unmarked) [PCM-0102523]	0	0	0	0	102%	117%	90.4%
CC1CC(=O)Nc2ccccc2N1C(=O)CCl (centres unmarked) [PCM-0102697]	0	0.22	0	0	83.7%	62.6%	52.8%
Cc1nnc(NC(=O)CCl)s1 [PCM-0102211]	0	0	0	0	99.8%	86.7%	90.5%
N#Cc1ccccc1S(=O)(=O)N1CCN(C(=O)CCl)CC1 [PCM-0102395]	0	0.28	0	0	11.2%	62.6%	9.7%
O=C(CCl)N1CCN(S(=O)(=O)c2ccc(F)c(Cl)c2)CC1 [PCM-0102343]	0	0.12	0	0	1.4%	14.3%	2.6%
CN(Cc1cccc(C(F)(F)F)c1)C(=O)CCl [PCM-0102987]	0	0.09	0	0	5.3%	45.2%	6.7%
CN(C)S(=O)(=O)c1ccc2c(c1)CCCN2C(=O)CCl [PCM-0102285]	0	0	0	0	21.6%	53.5%	2.2%
CCC(C)NC(=O)NC(=O)CCl (centres unmarked) [PCM-0102908]	0	0	0	0	110%	91.8%	88.7%
Cc1c(C#N)c(NC(=O)CCl)n(-c2ccc(F)cc2)c1C [PCM-0102099]	0	0.17	0	0	33.6%	53.9%	11.6%
